Values quoted from earlier work, collected in US20180206486A1, “Stable Agricultural Compositions” (Ceradis B.V., priority 2015, published 2018).

Key:
rodents = details: after oral and dermal administration and inhalatory exposure
[1] = test system: downy mildew (Plasmopara viticola); details: in vivo

Substance: Potassium phosphite
- toxicity in rodents (rodents): low toxicity
- effectiveness as fungicide against downy mildew [1]: effective
